Structures are written as SMILES.

For the experiment, the system named is T1, glutaminase free asparaginase from Enterobacter cloacae.
T1 construct: gene ansB; native, purified from culture supernatant (ammonium sulphate, DEAE-cellulose, Sephadex G-100); EC 3.5.1.1
Description: Nesslerization (ammonia release), Lineweaver-Burk plot. Type of experiment: biochemical. Conditions: 0.05 M phosphate buffer pH 7.5, 37°C; L-asparagine 0.2–24 mM.

A word on the Km: it is the concentration of substrate that gives half-maximal velocity. Take `NC(=O)C[C@H](N)C(=O)O` [L-asparagine]: the Km amounted to 1580 µM.

The record behind these values is publication PMC4758734, “Purification and Characterization of Glutaminase Free Asparaginase from Enterobacter cloacae: In-Vitro Evaluation of Cytotoxic Potential against Human Myeloid Leukemia HL-60 Cells” (PLoS ONE, 2016).
